# PubChem BioAssay AID1963833 (Molecular Pharmacology Branch, DTP, NCI, 2024)
# System: 883617-216-R-J1-PDC complex spheroid viability
# Test: Anticancer human tumor 883617-216-R-J1-PDC patient-derived bladder carcinoma cell line growth inhibition [POLQ]
# Details: for IC50: curve of first compound; for viability, T/C: stronger effect = lower value
# Experimental: Multicellular complex tumor spheroid response to Polymerase (POL) inhibitors (novobiocin, ART-558, RP6685) in combination with a variety of drugs and investigational agents in selected tumor cell lines
# The POL inhibitors (novobiocin, ART-558, and RP6685) were evaluated both individually and in combination with standard of care and investigational anticancer small molecules within a complex spheroid model of solid tumors. . Complex spheroids include a stromal component modeled by human endothelial cells (HUVEC) and fibroblasts modeled by human mesenchymal stem cells (MSCs). The concentration ranges selected for each drug and investigational agent were based upon clinically achievable concentrations if the clinical Cmax of the agent was known.
# Compounds. The drugs and investigational agents: novobiocin (NSC847541), ART-558 (NSC835418), RP-6685 (NSC848927), peposertib (NSC802822), ceralasertib (NSC780249), elimusertib (NSC800525), camonsertib (NSC841442), AZD-1390 (NSC803789), olaparib (NSC753686), talazoparib (NSC767125), rucaparib (NSC756644), sotorasib (NSC818433), MRTX-1133 (NSC836407), SN-38 (NSC673596), topotecan (NSC609699), epotoside (NSC141540), doxorubicin (NSC123127), gemcitabine (NSC613327), 5-fluorouracil (NSC19893), paclitaxel (NSC125973), vemurafenib (NSC761431), MSA-2 (NSC828583), SN-011 (NSC837082), adavosertib (NSC754352), prexasertib (NSC758257), carboplatin (NSC241240) and oxaliplatin (NSC266046), were obtained from the National Cancer Institute (NCI) Developmental Therapeutics Program Chemical Repository (21). The FDA-approved anticancer drug set is available from the Developmental Therapeutics Program at https://dtp.cancer.gov/organization/dscb/obtaining/. […] The stock solutions were prepared in dimethyl sulfoxide (DMSO, Sigma-Aldrich, St. Louis, MO, cat. D2650), except for the platinum compounds which were prepared in saline (Quality Biological, Gaithersburg, MD, cat. 114-055-101), at 800-fold the tested concentration and stored at -70 degrees C prior to their use. All drugs and investigational agents were tested over a range starting from a high concentration at or near the clinical Cmax and decreasing in half-log increments. If the clinical Cmax for an agent had not been determined, the highest concentration tested was 10 microM, except for SN-38, which was tested at a high concentration of 1 microM.
# Cell Culture. All cells were maintained in an incubator at 37 degrees C and 5% CO2 with 95% humidity. The PDC lines were cultured according to standard operating procedures established by the NCI PDMR (https://pdmr.cancer.gov). Table 3 of the manuscript, lists the cell lines along with the number of the three cell types plated to form the mct-spheroids and media for tumor cell growth. After thawing, all PDC lines, except 997537-175-T-J1-PDC and 415267-285-R-J2-PDC, were cultured in Matrigel-coated flasks prepared with a working solution of 1X Ham's F-12 nutrient mix, without supplementation (Thermo Fisher Scientific, cat. 11765054), 100 U/mL penicillin-streptomycin (Thermo Fisher Scientific, cat. 15140122), and 2.5% Matrigel (Corning Inc., Corning, NY, cat. 354248) for the first three passages. The two PDC lines 997537-175-T-J1-PDC and 415267-285-R-J2-PDC were cultured on uncoated flasks. The 857933-349-R-J2-PDC line was cultured in 6C/Colon 1B media containing advanced DMEM/F-12 (Thermo Fisher Scientific, cat. 12634028), 10 mM HEPES (Thermo Fisher Scientific, cat. 15630080), 1X GlutaMAX supplement (Thermo Fisher Scientific, cat. 35050061), 0.1 mg/mL primocin (InvivoGen, San Diego, CA, cat. ant-pm-2), 10% defined fetal bovine serum, heat inactivated (HyClone Laboratories Inc., Logan, UT, cat. SH30070.03HI), 50% L-WRN conditioned media (ATCC, cat. CRL-3276), 1.25 mM N-Acetyl-L-cysteine (Sigma-Aldrich, cat. A9165), 10 mM nicotinamide (Sigma-Aldrich, cat. N0636), 1X B-27 supplement (Thermo Fisher Scientific, cat. 17504044), 1X N-2 supplement (Thermo Fisher Scientific, cat. […]
# 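Also: spheroids exposed to compounds for seven days before readout.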
# 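For viability, T/C in this document: 100% = DMSO vehicle control viability.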
structure (smiles),measurement,setting,value
CC[C@@]1(O)C(=O)OCc2c1cc1n(c2=O)Cc2cc3c(CN(C)C)c(O)ccc3nc2-1 + COC1C(OC(N)=O)C(O)C(Oc2ccc3c(O)c(NC(=O)c4ccc(O)c(CC=C(C)C)c4)c(=O)oc3c2C)OC1(C)C,IC50,second compound 0.0316 µM,> 100 nM
same,IC50,second compound 0.1 µM,> 100 nM
same,IC50,second compound 0.316 µM,> 100 nM
same,IC50,second compound 1 µM,> 100 nM
same,IC50,second compound 3.16 µM,> 100 nM
same,IC50,second compound 10 µM,> 100 nM
same,"viability, T/C","second compound 0.0316 µM, first compound 0.000316 µM",110%
same,"viability, T/C","second compound 0.0316 µM, first compound 0.001 µM",98.5%
same,"viability, T/C","second compound 0.0316 µM, first compound 0.00316 µM",94.7%
same,"viability, T/C","second compound 0.0316 µM, first compound 0.01 µM",89.1%
same,"viability, T/C","second compound 0.0316 µM, first compound 0.0316 µM",67.4%
same,"viability, T/C","second compound 0.0316 µM, first compound 0.1 µM",65.2%
same,"viability, T/C","second compound 0.1 µM, first compound 0.000316 µM",108%
same,"viability, T/C","second compound 0.1 µM, first compound 0.001 µM",110%
same,"viability, T/C","second compound 0.1 µM, first compound 0.00316 µM",91.7%
same,"viability, T/C","second compound 0.1 µM, first compound 0.01 µM",85.8%
same,"viability, T/C","second compound 0.1 µM, first compound 0.0316 µM",55.2%
same,"viability, T/C","second compound 0.1 µM, first compound 0.1 µM",60.6%
same,"viability, T/C","second compound 0.316 µM, first compound 0.000316 µM",95.9%
same,"viability, T/C","second compound 0.316 µM, first compound 0.001 µM",101%
same,"viability, T/C","second compound 0.316 µM, first compound 0.00316 µM",87.1%
same,"viability, T/C","second compound 0.316 µM, first compound 0.01 µM",81.6%
same,"viability, T/C","second compound 0.316 µM, first compound 0.0316 µM",58%
same,"viability, T/C","second compound 0.316 µM, first compound 0.1 µM",65%
same,"viability, T/C","second compound 1 µM, first compound 0.000316 µM",94.9%
same,"viability, T/C","second compound 1 µM, first compound 0.001 µM",96.8%
same,"viability, T/C","second compound 1 µM, first compound 0.00316 µM",89.7%
same,"viability, T/C","second compound 1 µM, first compound 0.01 µM",82.3%
same,"viability, T/C","second compound 1 µM, first compound 0.0316 µM",57.3%
same,"viability, T/C","second compound 1 µM, first compound 0.1 µM",61.7%
same,"viability, T/C","second compound 3.16 µM, first compound 0.000316 µM",107%
same,"viability, T/C","second compound 3.16 µM, first compound 0.001 µM",89.6%
same,"viability, T/C","second compound 3.16 µM, first compound 0.00316 µM",93.4%
same,"viability, T/C","second compound 3.16 µM, first compound 0.01 µM",78%
same,"viability, T/C","second compound 3.16 µM, first compound 0.0316 µM",65.2%
same,"viability, T/C","second compound 3.16 µM, first compound 0.1 µM",57.1%
same,"viability, T/C","second compound 10 µM, first compound 0.000316 µM",104%
same,"viability, T/C","second compound 10 µM, first compound 0.001 µM",90.9%
same,"viability, T/C","second compound 10 µM, first compound 0.00316 µM",95.3%
same,"viability, T/C","second compound 10 µM, first compound 0.01 µM",88%
same,"viability, T/C","second compound 10 µM, first compound 0.0316 µM",65.6%
same,"viability, T/C","second compound 10 µM, first compound 0.1 µM",64.9%
